How the values were obtained:
[1] = tested on: Tel12 (DNA, G4) TAGGGTTAGGGT; assay: UV melting at 295 nm; conditions: KCl 0.1 M; NaCacodylate 2.5 mM, pH 7.0; ligand 1.75 × 10^-5 M, Tel12 1.87 × 10^-5 M
[2] = tested on: Tel23 (DNA, G4) TAGGGTTAGGGTTAGGGTTAGGG; assay: UV melting at 295 nm; conditions: KCl 0.1 M; NaCacodylate 2.5 mM, pH 7.0; ligand 1.40 × 10^-5 M, Tel23 1.38 × 10^-5 M
[3] = tested on: Tel12 (DNA, G4) TAGGGTTAGGGT; assay: UV-vis titration, HypSpec2014 fit; conditions: KCl 0.1 M, NaCacodylate 2.5 mM, pH 7.0, 25 °C
[4] = tested on: Tel23 (DNA, G4) TAGGGTTAGGGTTAGGGTTAGGG; assay: UV-vis titration, HypSpec2014 fit; conditions: KCl 0.1 M; NaCacodylate 2.5 mM, pH 7.0, 25 °C
[5] = tested on: Tel12 (DNA, G4) TAGGGTTAGGGT; assay: X-ray crystallography; conditions: K+ in channel

ΔTm [1]	ΔTm [2]	LogK [3]	LogK [4]	binding ([5]; 0.05 M KCacodylate, 0.1 M Li2SO4, pH 6.5, 20% v/v PEG400)	binding ([5]; 0.1 M NaI in crystallizing solution, 0.05 M NaCacodylate pH 6.5, 35% v/v MPD)	LogK ([3]; 1:1 step, further 1:2 ligand:G4 adduct also fitted)	Compound
15.0 ± 1.4 °C	5.1 ± 1.1 °C	7.2 ± 0.2	5.6 ± 0.2				COc1ccc2c(CCCCCc3ccncc3)c3[n+](cc2c1OC)CCc1cc2c(cc1-3)OCO2
8.7 ± 1.5 °C	5.9 ± 1.0 °C	7.0 ± 0.2	5.2 ± 0.2	yes			COc1ccc2c(CCCCc3ccncc3)c3[n+](cc2c1OC)CCc1cc2c(cc1-3)OCO2
16.7 ± 1.3 °C	2.3 ± 0.6 °C	6.6 ± 0.2	5.8 ± 0.2				COc1ccc2c(CCCc3ccncc3)c3[n+](cc2c1OC)CCc1cc2c(cc1-3)OCO2

The remaining lines, values behind:

Compound	ΔTm [1]	ΔTm [2]	LogK [3]	LogK [4]	binding ([5]; 0.05 M KCacodylate, 0.1 M Li2SO4, pH 6.5, 20% v/v PEG400)	binding ([5]; 0.1 M NaI in crystallizing solution, 0.05 M NaCacodylate pH 6.5, 35% v/v MPD)	LogK ([3]; 1:1 step, further 1:2 ligand:G4 adduct also fitted)
COc1ccc2c(CCc3ccncc3)c3[n+](cc2c1OC)CCc1cc2c(cc1-3)OCO2	9.7 ± 1.8 °C	4.1 ± 0.8 °C	6.1 ± 0.2	4.0 ± 0.3		yes	
COc1ccc2c(Cc3ccncc3)c3[n+](cc2c1OC)CCc1cc2c(cc1-3)OCO2	14.4 ± 1.5 °C	4.1 ± 0.4 °C		4.4 ± 0.2			6.0 ± 0.2
